Values quoted from earlier work in patent publication US8133524B1, “Food composition for hemophagous insects” (Tokitae LLC, priority 2010, dated 2012).
Entries after “also recorded” stand apart in the source; their conditions may differ.

Tested on: Aedes aegypti mosquitoes
Conditions: mosquitoes fed with human red blood cells or blood

CC[C@H](C)[C@H](N)C(=O)O [isoleucine]
effect of isoleucine supplementation on egg production / egg-laying: enhanced egg production rate; also recorded: enhanced egg-laying after blood feeding
